Where two headings read alike, the source gives them in different places.
Columns and labels:
[1] = biological target: T1, prostanoid EP3 receptors (Homo sapiens, UniProt P43115); experiment: binding on prostanoid EP3 receptors (method of Abramovitz et al.); conditions: read-out: Activity (EP3 receptor binding, IC50 class)
T1 sequence (P43115 1-390): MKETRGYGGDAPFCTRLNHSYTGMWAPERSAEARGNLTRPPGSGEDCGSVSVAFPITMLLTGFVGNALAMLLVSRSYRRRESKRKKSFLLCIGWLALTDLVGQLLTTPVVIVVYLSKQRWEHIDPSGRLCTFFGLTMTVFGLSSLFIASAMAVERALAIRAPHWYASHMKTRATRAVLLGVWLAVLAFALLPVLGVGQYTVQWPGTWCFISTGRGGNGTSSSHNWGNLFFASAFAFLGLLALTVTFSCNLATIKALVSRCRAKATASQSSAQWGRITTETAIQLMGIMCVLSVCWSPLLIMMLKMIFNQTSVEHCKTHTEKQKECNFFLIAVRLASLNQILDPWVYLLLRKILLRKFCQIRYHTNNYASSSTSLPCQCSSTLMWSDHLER
Experimental: The compounds of the invention were assayed for their binding on prostanoid EP3 receptors according to the method of Abramovitz et al. [Bioch. Biophys.

[2] = system: human platelets; experiment: platelet aggregation in vitro, human platelets; assay type: cell-based; conditions: Serum % 50, read-out: IC50 (nM) for Test Compounds
Experimental: (§1) The compounds of the invention were assayed for their effects on platelet aggregation in vitro. In experiments with human platelets, whole blood was extracted from overnight-fasted human donors. Each experiment was performed with blood from single individual. In experiments with rodent platelets, whole blood was gathered from the heart of female mice or male rats under isofluran (Abbott) anaesthesia. Blood was pooled from two or ten individual rodents for each experiment in the case of rat and mouse experiments, respectively. In all cases, blood was collected into 3.8% sodium citrate tubes (Greiner Bio-one). Platelet-rich plasma (PRP) was obtained by centrifugation at 100×g for 15 min at 25° C. for humans, at 150×g for rats, or at 80×g for 10 min for mice. Platelet-poor plasma was obtained by centrifugation of the remaining blood at 2,400×g for 10 min at 25° C. After counting in an Autocounter (Model 920 EO, Swelab) platelets were diluted when necessary to the desired stock concentrations (200,000-300,000 platelets/μl) using 0.9% NaCl isotonic solution (Braun).
Platelet aggregation was determined by light absorbance using a platelet aggregometer with constant magnetic stirring (Model 490, Chronolog Cop., Havertown, Pa., USA), using a volume of 500 μl per cuvette. During the performance of the experiments, platelet solution was continually agitated by mild horizontal shaking. Collagen (Sigma) and PGE2 or sulprostone (Cayman Chemicals) were used as accelerants of platelet aggregation. Compounds used for this assay were dissolved and stored in a 100% DMSO solution. After dilution, the final DMSO concentration in the assay was lower than 0.1% v/v. […] Acceleration agents and EP3 test compounds were diluted in isotonic solution at the desired concentration. Sigmoidal non-lineal regression was used to calculate the concentration of test compound required to inhibit platelet aggregation by 50% (IC50). IC50 values of test compounds were calculated using GraphPad Prism 3.02 for Windows (GraphPad Software, San Diego Calif. USA). […]

[3] = system: female C57BL/6 mice; experiment: pulmonary thromboembolism induced by arachidonic acid (platelet aggregation in vivo); design: species or system mouse; conditions: 100 mg/kg orally, 30 min before arachidonic acid 30 mg/kg i.v.; survival one hour after challenge
Experimental: The compounds of the invention also were assayed for their effects on platelet aggregation in vivo. An in vivo test of platelet activation is the induction of pulmonary thromboembolism by arachidonic acid, a precursor of prostaglandin formation. Inhibitors of prostaglandin synthesis, e.g., a COX-1 inhibitor such as asprin, are protective in the assay. For the pulmonary thromboembolism assay, concious female C57BL/6 mice were dosed orally with the test compounds and 30 min later thromboembolism was induced by injection of arachidonic acid into a tail vein at a dose of 30 mg per kg body weight. Survival was evaluated one hour after the challenge with arachidonic acid, as mice that survive for that length of time usually recovered fully. The arachidonic acid injection was given via a lateral tail vein in a mouse that had been warmed briefly under a heat lamp (dilation of the tail veins using heat facilitates placing the injection). An insulin syringe, 0.5 mL (from Becton Dickinson) was used for dosing. The dose volume given of both the test compound and the arachidonic acid was adjusted to the weight of the mouse (the dose volume p.o. for test compounds and i.v. for arachidonic acid solution was 10 μL and 5 μL per gram body weight, respectively). The survival rate for mice treated with arachidonic acid only was 1 per 10 mice evaluated or 10%. Survival rates for mice treated with test compounds (100 mg/kg, orally) and then arachidonic acid are shown below in Table 4.

[4] = system: rat platelets; experiment: platelet aggregation in vitro, rat platelets; assay type: cell-based; conditions: Serum % 20, read-out: IC50 (nM) for Test Compounds
Experimental: as §1
Platelet aggregation was determined by light absorbance using a platelet aggregometer with constant magnetic stirring (Model 490, Chronolog Cop., Havertown, Pa., USA), using a volume of 500 μl per cuvette. […] IC50 values of test compounds were calculated using GraphPad Prism 3.02 for Windows (GraphPad Software, San Diego Calif. USA). […]

Row | SMILES | IC50 [1] | also measured
1 | Cc1cn(Cc2ccc3ccccc3c2)c2c(C=CC(=O)NS(=O)(=O)c3cc(Cl)c(Cl)s3)cc(F)cc12 [Compound P068] |  | No. mice surviving/Total no. of mice evalauted [3]: 4/14; Survival rate [3]: 28%
2 | O=C(COc1cccc2[nH]cc(S(=O)(=O)c3ccc4ccccc4c3)c12)NS(=O)(=O)c1cc(Cl)c(Cl)s1 [Compound P150] |  | No. mice surviving/Total no. of mice evalauted [3]: 4/8; Survival rate [3]: 50%
3 | O=C(C=Cc1cc(F)cc2ccn(Cc3ccc4ccccc4c3)c12)NS(=O)(=O)c1cccs1 [Compound P060] | < 1000 nM | 
4 | CN1C(=O)C(Nc2ccc(Cl)c(Cl)c2)c2c(C=CC(=O)NS(=O)(=O)c3cc(Cl)c(Cl)s3)cccc21 (centres unmarked) [Compound P271] | < 1000 nM | 
5 | O=C(C=Cc1cc(F)cc2c(CO)cn(Cc3ccc(Cl)cc3Cl)c12)NS(=O)(=O)c1cc(Cl)c(Cl)s1 [Compound P397] | < 1000 nM | 
6 | CCOC(=O)C12CCCC(C=CC(=O)NS(=O)(=O)c3ccc(F)c(F)c3)=C1N(Cc1ccc(Cl)cc1Cl)C(=O)C2 (centres unmarked) [Compound P346] | < 1000 nM | 
7 | O=C(COc1cccc2[nH]cc(Sc3ccc4ccccc4c3)c12)NS(=O)(=O)c1ccccc1Cl [Compound P183] | < 1000 nM | 
8 | O=C(COc1cccc2c1N(Cc1ccc3nonc3c1)C(=O)CO2)NS(=O)(=O)c1cccs1 [Compound P042] | 1000 to 10000 nM | 
9 | O=Cc1cn(Cc2ccc(Cl)cc2Cl)c2c(C=CC(=O)NS(=O)(=O)c3cccs3)cccc12 [Compound P069] | < 1000 nM | 
10 | O=C(C=Cc1cc(F)cc2c(C(=O)O)cn(Cc3ccc(Cl)cc3Cl)c12)NS(=O)(=O)c1cc(Cl)c(Cl)s1 [Compound P398] | < 1000 nM | 
11 | Cc1cn(Cc2ccc(Cl)cc2Cl)c2c(C=CC(=O)NS(=O)(=O)c3cc(Cl)c(Cl)s3)cc(F)cc12 [Compound P067] | < 1000 nM | IC50 ([4]; agonist PGE2 (940 nM) and collagen (2.0 ug.mL)): 304 nM; IC50 ([4]; agonist Sulprostone (100 nM) and collagen (2.0 ug.mL)): 87.8 nM; No. mice surviving/Total no. of mice evalauted [3]: 15/22; Survival rate [3]: 68%; IC50 ([2]; Homo sapiens, agonist PGE2 (940 nM) and collagen (0.125 ug.mL)): 5.15 nM; IC50 ([2]; Homo sapiens, agonist Sulprostone (100 nM) and collagen (0.125 ug.mL)): 9.21 nM

More lines, main results first:

Row | IC50 [1] | SMILES | also measured
12 | < 1000 nM | CC12CCCC(C=CC(=O)NS(=O)(=O)c3cc(Cl)c(Cl)s3)=C1N(Cc1ccc3ccccc3c1)C(=O)C2 (centres unmarked) [Compound P253] | IC50 ([2]; agonist Sulprostone (100 nM) and collagen (0.125 ug.mL)): 15.9 nM
13 | < 1000 nM | CC12CCCC(C=CC(=O)NS(=O)(=O)c3cccc(Cl)c3)=C1N(Cc1ccc(Cl)cc1Cl)C(=O)C2 (centres unmarked) [Compound P281] | 
14 | < 1000 nM | COc1ccc(S(=O)(=O)NC(=O)C=Cc2cn(C)c3cccc(Oc4ccc5ccccc5c4)c23)cc1 [Compound P366] | 
15 | < 1000 nM | Cn1cc(C=CC(=O)NS(=O)(=O)c2ccc(F)cc2)c2c(Oc3ccc4ccccc4c3)cccc21 [Compound P351] | 
16 | < 1000 nM | O=C(COc1cccc2c1N(Cc1ccc3ccccc3c1)C(=O)CO2)NS(=O)(=O)c1cccs1 [Compound P018] | 
17 | < 1000 nM | Cn1cc(C=CC(=O)NS(=O)(=O)c2cccc(Cl)c2)c2c(Oc3ccc4ccccc4c3)cccc21 [Compound P353] | 
18 | < 1000 nM | CC12CCCC(C=CC(=O)NS(=O)(=O)c3cc(F)c(F)cc3F)=C1N(Cc1ccc(F)cc1)C(=O)C2 (centres unmarked) [Compound P300] | 
19 | < 1000 nM | Cn1cc(/C=C/C(=O)NS(=O)(=O)c2cc(Cl)c(Cl)s2)c2c(Oc3ccc(Cl)c(F)c3)cccc21 [Compound P333] | 
20 | < 1000 nM | Cc1cn(Cc2cn3ccccc3n2)c2c(/C=C/C(=O)NS(=O)(=O)c3cccc(Cl)c3)cc(F)cc12 [Compound P400] | 
21 | < 1000 nM | Cc1cn(CCC(=O)NS(=O)(=O)c2cc(F)c(F)cc2F)c2c(Oc3ccc(Cl)c(Cl)c3)cc(F)cc12 [Compound P386] | 
22 | < 1000 nM | CC(C)(C)OC(=O)N1CCCc2cccc(OCC(=O)NS(=O)(=O)c3cccs3)c21 [Compound P273] | 
23 | < 1000 nM | O=C(C=Cc1cccc2c1C(=Nc1ccc3ccccc3c1)C(=O)N2)NS(=O)(=O)c1cc(Cl)c(Cl)s1 [Compound P244] | 
24 | < 1000 nM | Cn1cc(C=CC(=O)NS(=O)(=O)c2ccc(F)c(F)c2)c2c(Oc3ccc(F)c(F)c3)cccc21 [Compound P319] | 
25 | < 1000 nM | Cn1cc(C=CC(=O)NS(=O)(=O)c2cc(Cl)c(Cl)s2)c2c(Oc3ccc(F)c(F)c3)cccc21 [Compound P320] | 
26 | < 1000 nM | Cc1cn(Cc2ccc(Cl)cc2)c2c(/C=C/C(=O)NS(=O)(=O)c3cc(Cl)c(Cl)s3)cccc12 [Compound P137] | 
